Data: patent US20090048304A1, “Crystal Form of Besipirdine Chlorhydrate, Process Preparation and Use Thereof” (UROGENE, priority 2006, published 2009)
Read-outs that look alike come from different tables or passages of the source.

Tests used:
[1] = for Form(s) identified after maturation: maturation time 8 hours, 100 mg suspension in 2 ml n-butyl-acetate; for Stability of the crystal form in maturation studies (summary in words): all tested conditions: 25, 50, 80 °C, 8 or 72 hours, n-butyl-acetate
Experimental: 100 mg suspensions of the different polymorphic forms, separated or in mixtures, in 2 ml of n-butyl-acetate, were left for maturation during 8 or 72 hours at different temperatures.

[2] = storage conditions at room temperature, use and storing conditions of the powder
[3] = system: bladder contractions induced by bladder irritation; details: in vivo, in rats; according to WO02/064126; cited from earlier work

CCCN(c1ccncc1)n1ccc2ccccc21.Cl [I + II, N-propyl-N-(4-pyridinyl)-1H-indol-1-amine chlorhydrate]
Form(s) identified after maturation ([1]; 25 °C): I + II
Form(s) identified after maturation ([1]; 50 °C): I + II
Form(s) identified after maturation ([1]; 80 °C): I + II
Stability of the crystal form in maturation studies (summary in words) ([1]; listed as mixture of forms I and II): changes towards form I

CCCN(c1ccncc1)n1ccc2ccccc21.Cl [Form III, N-propyl-N-(4-pyridinyl)-1H-indol-1-amine chlorhydrate]
Stability of the crystal form in maturation studies (summary in words) [1]: quickly turns into form I

CCCN(c1ccncc1)n1ccc2ccccc21.Cl [Form I, N-propyl-N-(4-pyridinyl)-1H-indol-1-amine chlorhydrate]
Stability of the crystal form in maturation studies (summary in words) [1]: stable
Stability of the crystal form in maturation studies (summary in words) ([1]; listed as form I): thermodynamically the most stable of the three crystal forms
Change of the polymorphic form with time on storage [2]: does not evolve with time
Change of the polymorphic form with time on storage ([2]; listed as Polymorphic form I of besipirdine.HCl): thermodynamically the most stable of all characterized forms

CCCN(c1ccncc1F)n1cc(C)c2ccccc21 [HP184, N-(3-fluoro-4-pyridinyl)-N-propyl-3-methyl-1H-indol-1-amine]
Frequency of bladder contractions induced by bladder irritation [3]: slightly decrease the frequency of bladder contractions

CCCN(c1ccncc1)n1ccc2ccccc21.Cl [Form II, N-propyl-N-(4-pyridinyl)-1H-indol-1-amine chlorhydrate]
Stability of the crystal form in maturation studies (summary in words) [1]: appears to be a stable form
